In US10179799B2, “Method for producing P1,P4-di(uridine 5′-) tetraphosphate” (YAMASA CORPORATION, priority 2012, dated 2019):
Like-named read-outs stand apart in the source and are kept apart here.

Experiment: Determination of stability of UTP and related compound (solution left to stand, HPLC, decomposition rate)
Type: physicochemical
Method: In order to evaluate stability of UTP free, stability of aqueous solutions of UTP free and UTP sodium salt (UTP-Na) and a dimethylacetamide solution of UTP-tributylamine salt (UTP-TBA) was examined. Also, stability of aqueous solutions of UDP free and UDP-Na as comparison control was also determined. The solution of each substance was left to stand for a certain period at −20° C., 25° C. or 50° C., and the concentration of each substance was determined by HPLC to calculate a decomposition rate. Here, the decomposition rate was defined as the following [equation 1]. Decomposition rate (%) of each substance={100−(HPLC % of each substance at determination/HPLC % of each substance at test start)×100} [equation 1]

[1] = aqueous solution left to stand at 25° C., 8 h, 16 mM UTP free, 10 mM UDP free
[2] = aqueous solution left to stand at 25° C., 24 h, 16 mM UTP free, 10 mM UDP free
[3] = 50° C., 8 h, 35 mM UTP-TBA in dimethylacetamide solution, 40 mM UTP-Na and 40 mM UDP-Na in aqueous solution
[4] = 50° C., 24 h, 35 mM UTP-TBA in dimethylacetamide solution, 40 mM UTP-Na and 40 mM UDP-Na in aqueous solution

SMILES | Decomposition rate [1] [%] | Decomposition rate [2] [%] | Decomposition rate [3] [%] | Decomposition rate [4] [%] | Stability during storage of the solution | Decomposition rate (aqueous solution left to stand at −20° C., 18 h, 16 mM UTP free) [%] | Stability during storage of the solution (compared to UTP sodium salt, UDP free and UDP sodium salt)
O=c1ccn([C@@H]2O[C@H](COP(=O)(O)OP(=O)(O)O)[C@@H](O)[C@H]2O)c(=O)[nH]1 [UDP free, uridine 5′-diphosphoric acid] | 0 | 0 | – | – | – | – | –
O=c1ccn([C@@H]2O[C@H](COP(=O)([O-])OP(=O)([O-])O)[C@@H](O)[C@H]2O)c(=O)[nH]1.[Na+].[Na+] [UDP-Na, UDP sodium salt] | – | – | 2 | 5 | – | – | –
O=c1ccn([C@@H]2O[C@H](COP(=O)(O)OP(=O)(O)OP(=O)(O)O)[C@@H](O)[C@H]2O)c(=O)[nH]1 [UTP free, uridine 5′-triphosphoric acid] | 4 | 12 | – | – | clearly low stability | 4 | –
O=c1ccn([C@@H]2O[C@H](COP(=O)([O-])OP(=O)([O-])OP(=O)([O-])O)[C@@H](O)[C@H]2O)c(=O)[nH]1.[Na+].[Na+].[Na+] [UTP-Na, UTP sodium salt] | – | – | 2 | 6 | – | – | –
CCCCN(CCCC)CCCC.O=c1ccn([C@@H]2O[C@H](COP(=O)(O)OP(=O)(O)OP(=O)(O)O)[C@@H](O)[C@H]2O)c(=O)[nH]1 [UTP-TBA, UTP-tributylamine salt] | – | – | 7 | 18 | – | – | clearly low stability
